Results reported in publication PMC13192270, “RhlR quorum-sensing receptor ligand sensitivity regulates the differential expression of phenazine genes in Pseudomonas aeruginosa” (Journal of Bacteriology, 2026).

System: ΔrhlI strain expressing RhlR T58L
Assay: RNA-seq gene expression
Format: cell-based, Pseudomonas aeruginosa
Set-up: opmD Expression value / mexI Expression value / mexH Expression value / mexG Expression value / lasB Expression value / rhlA Expression value / rhlB Expression value / rhlR Expression value / lecB Expression value / fhp Expression value / chiC Expression value / hcnA Expression value / mvfR Expression value / katB Expression value / norC Expression value / norB Expression value / katA Expression value: unit not given here
Conditions: 2 µM C4HSL
Description: To determine the effects of hypo- and hypersensitivity to C4HSL on RhlR-dependent transcription activation in P. aeruginosa, we performed RNA-seq on ΔrhlI strains expressing WT RhlR, RhlR T58L, and RhlR A44M in the presence of 2 µM C4HSL. We chose this approach to better control the levels of C4HSL across samples. All gene expression analyses were done relative to a ΔrhlI strain without exogenous supplementation of AHL. Thus, we examined the total increase in C4HSL-dependent gene regulation. We observed increased rhlA RNA levels in strains expressing WT RhlR and the RhlR T58L variant compared to ΔrhlI without C4HSL or a strain expressing the RhlR A44M variant (Table 2; Table S1). […] To corroborate our RNA-seq data, we built an rhlA promoter fusion to mScarlet and assayed reporter levels in the same genetic backgrounds as our transcriptomic experiment (Fig. S7D). Strains expressing hypersensitive RhlR variants produced similar levels of fluorescent signal relative to the WT strain, while a strain expressing a hyposensitive RhlR variant had diminished levels of fluorescent reporter (Fig. S7D).
A total of […] of overnight cultures was back diluted 1:100 in 20 mL of fresh LB media and incubated for 5 h at 37°C with shaking. Cells were harvested by centrifugation, and pellets were frozen until RNA extraction. RNA was extracted using the Invitrogen PureLink RNA Mini Kit. Pellets were resuspended in 100 µL lysozyme solution containing 10 mM Tris-HCl pH 8.0, 0.1 mM EDTA, and 1 mg/mL lysozyme. Five microliters of 1% SDS was added, and the solution was mixed with a vortex and incubated at room temperature for 5 min. A total of 350 µL lysis buffer (Invitrogen) was added with 10 µL 2-mercaptoethanol for each 1 mL of lysis buffer and vortexed. Cells were lysed by bead beating (BioSpec 0.1 MM Zirconia/Silica Beads) for two rounds of 50 s. Lysed cells were transferred to fresh microcentrifuge tubes with 250 µL of 100% ethanol and mixed with a vortex. Samples were spun in spin cartridges (Invitrogen) at 12,000 × g for 15 s at room temperature, and the flow-through was discarded. A total of 700 µL Wash Buffer I (Invitrogen) was added and spun at 12,000 × g for 15 s at room temperature, and the flow-through was discarded. A total of 500 µL Wash Buffer II (Invitrogen) with ethanol was added and centrifuged for 12,000 × g for 15 s at room temperature; the flow-through was discarded, and RNA samples were washed again. Cells were spun at 12,000 × g for 1 min at room temperature to dry the membrane with the bound RNA. A total of 50 µL RNAse-free water was added to the center of the spin cartridge, incubated at room temperature for 1 min, and centrifuged for 2 min at ≥12,000 × g at room temperature. Extracted RNA was then frozen at −80°C until further use.
Bulk RNA was sent to SeqCenter (Pittsburgh, PA) where it was processed for paired-end Illumina sequencing via rRNA depletion using Ribo-Zero Plus (Illumina). Fastq files generated by SeqCenter were processed using Rockhopper with default settings ([61][–][63]). Briefly, fastq files were aligned to the genome of Pseudomonas aeruginosa UCBPP-PA14. The reads were subsequently normalized using upper-quartile normalization, and transcript abundance was determined by reads per kilobase per million mapped reads. Differential gene expression analysis was conducted using a negative binomial distribution model, outputting a P-value for each transcript. The P-values were then corrected for false discovery using the Benjamini-Hochberg procedure, resulting in the q-values reported here (Table S2). SignalMap v2.0 (NimbleGen Systems) was used to visualize read counts for phzABCDEFG1/2, phzH, phzM, and phzS (Fig. 5). Aligned sequences generated in Rockhopper were converted to GFF files, and genes of interest were isolated into unique GFF files ([37]).

Compound: CCCC(=O)N[C@H]1CCOC1=O [C4HSL, N-butyryl-L-homoserine lactone]
- chiC Expression value: 3,615,357
- fhp Expression value: 396,561.5
- hcnA Expression value: 9,523
- katA Expression value: 12,151,161
- katB Expression value: 2,895,168
- lasB Expression value: 19,328,123.5
- lecB Expression value: 250,651
- mexG Expression value: 332,571.5
- mexH Expression value: 723,774.5
- mexI Expression value: 830,527.5
- mvfR Expression value: 267,969
- norB Expression value: 7,897,306
- norC Expression value: 3,026,578.5
- opmD Expression value: 525,347
- phnA Expression value: 1,406,882.5
- phnB Expression value: 434,424
- phzA1 Expression value: 6,068
- phzA2 Expression value: 61,057.5
- phzB1 Expression value: 73,793
- phzB2 Expression value: 1,991,168
- phzC1 Expression value: 272,395.5
- phzC2 Expression value: 1,969,682.5
- phzD1 Expression value: 1,058,250
- phzD2 Expression value: 977,075.5
- phzE1 Expression value: 2,058,712.5
- phzE2 Expression value: 1,532,300.5
- phzF1 Expression value: 1,047,752.5
- phzF2 Expression value: 1,048,278.5
- phzG1 Expression value: 312,421.5
- phzG2 Expression value: 1,165,545
- phzM Expression value: 79,302.5
- phzS Expression value: 377,065.5
- pqsA Expression value: 870,485.5
- pqsB Expression value: 2,171,803.5
- pqsC Expression value: 2,097,049
- pqsD Expression value: 2,742,260
- pqsE Expression value: 1,483,216.5
- rhlA Expression value: 879,447.5
- rhlB Expression value: 741,717
- rhlR Expression value: 906,213
- chiC Log2fold change (vs ΔrhlI without AHL): 4.706
- fhp Log2fold change (vs ΔrhlI without AHL): 5.681
- hcnA Log2fold change (vs ΔrhlI without AHL): −1.753
- katA Log2fold change (vs ΔrhlI without AHL): 1.97
- katB Log2fold change (vs ΔrhlI without AHL): 7.877
- lasB Log2fold change (vs ΔrhlI without AHL): 2.595
- lecB Log2fold change (vs ΔrhlI without AHL): −0.51
- mexG Log2fold change (vs ΔrhlI without AHL): 6.357
- mexH Log2fold change (vs ΔrhlI without AHL): 6.234
- mexI Log2fold change (vs ΔrhlI without AHL): 5.568
- mvfR Log2fold change (vs ΔrhlI without AHL): 0.187
- norB Log2fold change (vs ΔrhlI without AHL): 7.599
- norC Log2fold change (vs ΔrhlI without AHL): 7.238
- opmD Log2fold change (vs ΔrhlI without AHL): 6.207
- phnA Log2fold change (vs ΔrhlI without AHL): −0.7187
- phnB Log2fold change (vs ΔrhlI without AHL): −0.4007
- phzA1 Log2fold change (vs ΔrhlI without AHL): −2.305
- phzA2 Log2fold change (vs ΔrhlI without AHL): 2.537
- phzB1 Log2fold change (vs ΔrhlI without AHL): −2.194
- phzB2 Log2fold change (vs ΔrhlI without AHL): 3.237
- phzC1 Log2fold change (vs ΔrhlI without AHL): 0.3098
- phzC2 Log2fold change (vs ΔrhlI without AHL): 3.428
- phzD1 Log2fold change (vs ΔrhlI without AHL): 2.278
- phzD2 Log2fold change (vs ΔrhlI without AHL): 2.374
- phzE1 Log2fold change (vs ΔrhlI without AHL): 2.344
- phzE2 Log2fold change (vs ΔrhlI without AHL): 2.345
- phzF1 Log2fold change (vs ΔrhlI without AHL): 2.194
- phzF2 Log2fold change (vs ΔrhlI without AHL): 2.188
- phzG1 Log2fold change (vs ΔrhlI without AHL): 0.6164
- phzG2 Log2fold change (vs ΔrhlI without AHL): 3.389
- phzM Log2fold change (vs ΔrhlI without AHL): −2.128
- phzS Log2fold change (vs ΔrhlI without AHL): −0.989
- pqsA Log2fold change (vs ΔrhlI without AHL): −1.603
- pqsB Log2fold change (vs ΔrhlI without AHL): −0.7949
- pqsC Log2fold change (vs ΔrhlI without AHL): −0.8699
- pqsD Log2fold change (vs ΔrhlI without AHL): −0.6876
- pqsE Log2fold change (vs ΔrhlI without AHL): −0.7631
- rhlA Log2fold change (vs ΔrhlI without AHL): 1.8
- rhlB Log2fold change (vs ΔrhlI without AHL): 2.488
- rhlR Log2fold change (vs ΔrhlI without AHL): 0.5062
